Laboratory results taken from patent US7888342B2, “Methods of treating fibromyalgia syndrome, chronic fatigue syndrome and pain” (Cypress Bioscience, Inc., priority 2001, dated 2011).

How the values were obtained:
NMDA receptor = details: read-out: IC50, NMDA receptor antagonistic properties; cited from earlier work
[1] = system: patients with fibromyalgia syndrome (FMS); assay: Example 5: multicenter, double-blind, randomized, placebo-controlled monotherapy study of milnacipran for fibromyalgia; assay type: in vivo, human; details: 3-months
Protocol: This was a multicenter, randomized, double-blind, placebo-controlled three-arm study designed which enrolled 1196 patients who meet the 1990 ACR criteria for fibromyalgia syndrome (history of widespread pain and pain in 11 of 18 tender point sites on digital palpation), as well as the more detailed admission criteria outlined in the protocol. […] All randomized medications (placebo and milnacipran) were administered twice a day (BID). (i) Primary Efficacy Assessments: Patient Global Impression of Change (PGIC) administered to patients at visits […] Tx15/ET; Physical Component summary of SF-36 (SF-36 PCS) administered to patients at visits BL2/Tx0, […]) Secondary Efficacy Assessments: Time weighted average (AUC) of weekly average PED morning recall pain score; PGIC and SF-36 PCS administered to patients at visits Tx3 to Tx15. (iii) Additional Efficacy Measurements: The Fibromyalgia Impact Questionnaire (FIQ) total score and physical function, Beck Depression Inventory (BDI), the MOS-Sleep Index Scale, the Arizona Sexual Experiences Scale (ASEX), Patient pain 24 hour and 7 day recall VAS, the SF-36 individual domains, Patient Global Disease Status, Patient Global Therapeutic Benefit, the Multiple Ability Self-report Questionnaire (MASQ, cognitive function), the Multidimensional Health Assessment Questionnaire (MDHAQ), Multidimensional Fatigue Inventory (MFI), and diary assessments including current pain (morning, random daily, and evening reports); overall pain past week (weekly report), overall fatigue in the last week (weekly report), and the extent that pain kept the patient from caring for themselves (weekly report). The primary efficacy assessment of this study was a composite responder status defined by three domains of interest evaluated at visit Tx15. The domains measured were The primary efficacy parameter for an indication in the treatment of pain of fibromyalgia was the composite responder status based on the morning recall pain as recorded in the PED and patient global as recorded on the PGIC at Visit Tx15. The primary efficacy parameter for an indication in the treatment of FMS was the composite responder status based on two domains of pain and patient global as used above in the primary efficacy parameter for the treatment of the pain of fibromyalgia plus the additional domain of physical function as measured by the SF-36 PCS at Visit Tx15. […] A patient was classified as a responder for the treatment of FMS if he or she satisfied the responder criteria for the treatment of pain of fibromyalgia and the following additional criterion (at visit Tx15): • Improvement on the SF-36 PCS score from baseline by an amount at least equivalent to the minimal clinically important difference, as defined in the Statistical Analysis Plan. Table 1 summarizes 3-month results for the Baseline Observation Carried Forward (BOCF), Last Observation Carried Forward (LOCF) and study completer (OC) populations. LOCF is an analysis in which observations are carried forward to the last time point for patients who dropped out. The LOCF analysis treats the carried-forward data as observed data at the last time point. BOCF is an analysis that requires that the patient remain active in the trial to be evaluated for response. If a patient withdrew from the trial for any reason, they were classified as a non-responder irregardless of their pain and global scores at the time of withdrawal.

[2] = system: patient experiencing fatigue and fibromyalgia; details: lofepramine 70 mg bd in combination with L-phenylalanine 500 mg bd; persisted for more than six months; cited from earlier work

## CCN(CC)C(=O)[C@]1(c2ccccc2)C[C@@H]1CN (racemic) [milnacipran, cis-(±)-2-(aminomethyl)-N,N-diethyl-1-phenyl-cyclopropanecarboxamide]
NMDA receptor
  IC50: ~6.3 µM
[1]; BOCF, 100 mg/day (399)
  Composite Pain responder rate, difference from placebo: 6.35%
  Composite Pain responders, number: 91
  Composite Pain responders, percent: (22.81%)
  Composite Syndrome responder rate, difference from placebo: 5.81%
  Composite Syndrome responders, number: 58
  Composite Syndrome responders, percent: (14.54%)
  PGIC Component responder rate, difference from placebo: 8.39%
  PGIC Component responders, number: 125
  PGIC Component responders, percent: (31.33%)
  Pain Component responder rate, difference from placebo: 5.89%
  Pain Component responders, number: 124
  Pain Component responders, percent: (31.08%)
  SF36 PCS Component responder rate, difference from placebo: 5.62%
  SF36 PCS Component responders, number: 108
  SF36 PCS Component responders, percent: (27.07%)
[1]; BOCF, 200 mg/day (396)
  Composite Pain responder rate, difference from placebo: 8.29%
  Composite Pain responders, number: 98
  Composite Pain responders, percent: (24.75%)
  Composite Syndrome responder rate, difference from placebo: 5.16%
  Composite Syndrome responders, number: 55
  Composite Syndrome responders, percent: (13.89%)
  PGIC Component responder rate, difference from placebo: 9.64%
  PGIC Component responders, number: 129
  PGIC Component responders, percent: (32.58%)
  Pain Component responder rate, difference from placebo: 4.86%
  Pain Component responders, number: 119
  Pain Component responders, percent: (30.05%)
  SF36 PCS Component responder rate, difference from placebo: 1.02%
  SF36 PCS Component responders, number: 89
  SF36 PCS Component responders, percent: (22.47%)
[1]; LOCF, 100 mg/day (399)
  Composite Pain responder rate, difference from placebo: 7.61%
  Composite Pain responders, number: 103
  Composite Pain responders, percent: (25.81%)
  Composite Syndrome responder rate, difference from placebo: 6.56%
  Composite Syndrome responders, number: 65
  Composite Syndrome responders, percent: (16.29%)
  PGIC Component responder rate, difference from placebo: 9.65%
  PGIC Component responders, number: 138
  PGIC Component responders, percent: (34.59%)
  Pain Component responder rate, difference from placebo: 8.66%
  Pain Component responders, number: 149
  Pain Component responders, percent: (37.34%)
  SF36 PCS Component responder rate, difference from placebo: 6.89%
  SF36 PCS Component responders, number: 129
  SF36 PCS Component responders, percent: (32.33%)
[1]; LOCF, 200 mg/day (396)
  Composite Pain responder rate, difference from placebo: 11.35%
  Composite Pain responders, number: 117
  Composite Pain responders, percent: (29.55%)
  Composite Syndrome responder rate, difference from placebo: 6.68%
  Composite Syndrome responders, number: 65
  Composite Syndrome responders, percent: (16.41%)
  PGIC Component responder rate, difference from placebo: 13.19%
  PGIC Component responders, number: 151
  PGIC Component responders, percent: (38.13%)
  Pain Component responder rate, difference from placebo: 11.22%
  Pain Component responders, number: 158
  Pain Component responders, percent: (39.90%)
  SF36 PCS Component responder rate, difference from placebo: 2.09%
  SF36 PCS Component responders, number: 109
  SF36 PCS Component responders, percent: (27.53%)
[1]; OC, 100 mg/day
  Composite Pain responder rate, difference from placebo: 13.37%
  Composite Pain responders, percent: (38.56%)
  Composite Pain, m/n = # of responders/# of patients included: 91/236
  Composite Syndrome responder rate, difference from placebo: 11.22%
  Composite Syndrome responders, percent: (24.58%)
  Composite Syndrome, m/n = # of responders/# of patients included: 58/236
  PGIC Component responder rate, difference from placebo: 15.70%
  PGIC Component responders, percent: (47.53%)
  PGIC Component, m/n = # of responders/# of patients included: 125/263
  Pain Component responder rate, difference from placebo: 13.92%
  Pain Component responders, percent: (52.32%)
  Pain Component, m/n = # of responders/# of patients included: 124/237
  SF36 PCS Component responder rate, difference from placebo: 11.40%
  SF36 PCS Component responders, percent: (41.06%)
  SF36 PCS Component, m/n = # of responders/# of patients included: 108/263
[1]; OC, 200 mg/day
  Composite Pain responder rate, difference from placebo: 20.39%
  Composite Pain responders, percent: (45.58%)
  Composite Pain, m/n = # of responders/# of patients included: 98/215
  Composite Syndrome responder rate, difference from placebo: 12.22%
  Composite Syndrome responders, percent: (25.58%)
  Composite Syndrome, m/n = # of responders/# of patients included: 55/215
  PGIC Component responder rate, difference from placebo: 18.76%
  PGIC Component responders, percent: (50.59%)
  PGIC Component, m/n = # of responders/# of patients included: 129/255
  Pain Component responder rate, difference from placebo: 16.44%
  Pain Component responders, percent: (54.84%)
  Pain Component, m/n = # of responders/# of patients included: 119/217
  SF36 PCS Component responder rate, difference from placebo: 5.24%
  SF36 PCS Component responders, percent: (34.90%)
  SF36 PCS Component, m/n = # of responders/# of patients included: 89/255

## CN(CCCN1c2ccccc2CCc2ccccc21)CC(=O)c1ccc(Cl)cc1 [lofepramine]
[2]
  effect on fatigue and fibromyalgia: considerable improvement in fatigue and fibromyalgia
